Experimental data taken from publication PMC10466336, “Chemical Probe for Imaging of Polo-like Kinase 4 and Centrioles” (JACS Au, 2023).

What was measured:
Plk4 kinase domain = target: T1, Plk4 kinase domain (Homo sapiens, UniProt O00444); experiment: Competition binding assay based on fluorescence polarization (tracer Alexa488-PEG-N-centrinone); conditions: for Kd: Alexa488-PEG-N-centrinone 1 nM, Plk4-KD 5 nM; for binding affinity lower (KD higher) than that of unmodified centrinone: ratio of Kd to Kd of centrinone
T1 construct: Plasmids encoding fragments of Plk4 kinase domain (2-275) with 6xHis-tag were cloned in pET system vectors; made in house; host or cells: E. coli BL21 gold (DE3)
T1 sequence (O00444 2-275): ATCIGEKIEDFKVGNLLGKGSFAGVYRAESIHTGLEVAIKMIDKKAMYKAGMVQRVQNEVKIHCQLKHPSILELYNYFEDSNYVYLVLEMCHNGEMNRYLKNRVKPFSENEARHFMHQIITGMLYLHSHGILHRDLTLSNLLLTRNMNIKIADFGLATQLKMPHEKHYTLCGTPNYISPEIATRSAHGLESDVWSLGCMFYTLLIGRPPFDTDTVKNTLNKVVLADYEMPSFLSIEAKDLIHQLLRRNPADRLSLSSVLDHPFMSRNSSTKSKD
Source text: Moreover, we substituted the basic acetyl-piperazine nitrogen in compounds (1 and 2a) with an acetyl-piperidine, to avoid probe protonation and accumulation in endolysosomal compartments (Figure S1A, B).[23] […] These probes were characterized first in vitro by measuring their fluorogenicity in the presence of the 6xHis-tagged Plk4 kinase domain (KD) (Table 1). […] Next, we measured the binding affinities of the probes to the Plk4 kinase domain via a competition binding assay based on fluorescence polarization. […]
1.3.6 Fluorescence Polarization assay & competition assay […]
plate (Greiner Bio-One). Upon mixture of protein and ligand, the plate was incubated for 30 min at room temperature followed by fluorescence polarization measurements by a plate reader (TECAN Spark® 20M) using 485 nm as excitation wavelength (bandwidth 20 nm) and 535 nm as emission wavelength (bandwidth 25 nm). The obtained fluorescence polarization values from each well were plotted against the concentration of the protein. The apparent Kd values were obtained by fitting the curve to the […]
FP = FP + FPmax ― FPmin (C + C + K ― (C + C + K )2 ― 4C C ) […]
protein should be around the Kd of the tracer to ensure that enough free protein that can bind the […]
competitor, and enough signal change coming from binding and unbinding of the tracer. The solution of the tracer and protein was titrated with increasing amounts of competitors, in our case SiR650- and […]
The mixture was then incubated for an hour at room temperature and the FP was then measured on a plate reader using the same conditions as mentioned before. From the obtained FP values, we have calculated the amount of free protein in the solution for each concentration of competitor using the equation of the single-site binding isotherm:
Pfree = Kd_tracer FP ― FP
Where Pfree is concentration of free protein, Kd tracer represents the previously determined binding affinity

[1] = system: HeLa cells expressing Centrin1-GFP; experiment: Centriole phenotypic scoring (number of Centrin1-GFP foci); assay type: cell-based, human
Source text: Having established that SiR595-centrinone (2d) can successfully label overexpressed Plk4, we wanted to investigate whether it also marks endogenous Plk4. […] In contrast, partial Plk4 inhibition leads to increased levels of centriolar Plk4 due to partial interference with protein degradation mediated by autophosphorylation, overall resulting in centriole overamplification.[8] Therefore, both under-duplication and overamplification of centrioles can be used as a proxy for SiR595-centrinone binding to endogenous Plk4. […] We conclude that the failure of SiR595-centrinone (2d) to detect endogenous Plk4 is due to the low binding affinity of the probe in combination with low protein levels. […] In the second step, the Plk4-bound molecule is specifically reacted with an appropriate fluorogenic tetrazine dye.[27]−[33] This strategy was applied previously successfully to label various protein targets in live and fixed cells,[30],[32],[34]−[38] and we reasoned that a smaller and potentially more permeable Cen-TCO (3) derivative would likewise enable more efficient labeling of endogenous Plk4.
We conjugated trans-cyclooctene to the previously obtained compound (4) to obtain Cen-TCO (3) using the synthetic route outlined in Scheme S2. The resulting Cen-TCO (3) reacted with an appropriate tetrazine, such as SiR650-TetH (4a) (Figure S4A). The reaction was followed by LC-MS, and the data confirmed quantitative conversion of Cen-TCO (3) to the appropriate cycloaddition product Cen-Click-SiR650 (Figure S4A, D). […] To assess the phenotype caused by Cen-TCO (3), we incubated HeLa cells expressing Centrin1-GFP with different concentrations of Cen-TCO (3) for 24 h, followed by scoring of Centrin1-GFP foci numbers (Figure S5B). […] Despite the high unspecific background signal, a clear focus could be detected at centrioles (Figure 4B). […] The fwhm of the circular signal in this case was 368 ± 26 (N = 6) (Figure S7B), which corresponds to the size measured with overexpressed GFP-Plk4(K41M) (see Figure 3D), and approximately that of the torus region surrounding the centriole.[40] […]

| SMILES | Kd (Plk4 kinase domain) [nM] | binding affinity lower (KD higher) than that of unmodified centrinone (Plk4 kinase domain) [fold] | binding affinity higher than that of SiR595-centrinone (2d) (Plk4 kinase domain; ratio of Kd values) [fold] | concentration causing the centriole under-duplication phenotype ([1]; 24 h incubation, scoring of Centrin1-GFP foci) [nM] | effect on centriole numbers ([1]; 2 μM, 24 h) |
| --- | --- | --- | --- | --- | --- |
| COc1c(Nc2cc(C)[nH]n2)nc(Sc2ccc(S(=O)(=O)Cc3cccc([N+](=O)[O-])c3F)cc2F)nc1N1CCC(CC(=O)NCCNC(=O)OC2CC/C=C/CCC2)CC1 (stereo not shown) [compound 3] | 8 ± 1 | ~9 | 4 | ≥ 500 |  |
| COc1c(Nc2cc(C)[nH]n2)nc(Sc2ccc(S(=O)(=O)Cc3cccc([N+](=O)[O-])c3F)cc2F)nc1N1CCC(CC(=O)NCCNC(=O)c2ccc(C(=O)O)c(C3=C4C=CC(=N)C=C4[Si](C)(C)c4cc(N)ccc43)c2)CC1 [2d] | 38 ± 5 | 42 |  |  | did not affect centriole numbers |
